Data: patent publication US20050215634A1 (priority 2003, published 2005)
Where two headings read alike, the source gives them in different places.

Legend:
rabbit RBCs [1] = test: Streptolysin O-induced hemolysis on RBC agar plates; format: cell-based; settings: GML 10 μg/ml in agar, Group A Streptococci stabbed into agar
Experimental: GML (10 μg/ml) was incorporated into culture plates containing solid agar and rabbit RBCs suspended in the agar. The effect of GML on streptolysin O-induced hemolysis was tested by stabbing the Group A Streptococci into the agar so as to permit the anaerobic growth of the bacteria beneath the surface of the agar and thereby allow streptolysin O to function.

rabbit RBCs [2] = test: Streptolysin S-induced hemolysis on RBC agar plates; format: cell-based; settings: rabbit blood agar plates containing GML, surface culture of Group A Streptococci
Experimental: The effect of GML on streptolysin S-induced hemolysis was assayed by direct culturing of Streptococci on the surface of the RBC-containing agar plates.

HVECs = format: cell-based, human
HIV-1 = format: cell-based
[3] = GML 20 μg/ml + SPEA 100 μg/ml, 6 hours
[4] = GML 20 μg/ml + TSST-1 100 μg/ml, 6 hours

Compound | Streptolysin O-induced hemolysis of RBCs (rabbit RBCs [1]) | Streptolysin S-induced hemolysis (rabbit RBCs [2]) | IL-8 (pg/ml ± SE) (HVECs) | MIP-3α (pg/ml ± SE) (HVECs) | IL-8 (pg/ml ± SE) (HVECs; [3]) | MIP-3α (pg/ml ± SE) (HVECs; [3]) | IL-8 (pg/ml ± SE) (HVECs; [4]) | MIP-3α (pg/ml ± SE) (HVECs; [4]) | Cells expressing HIV-1 p24 (HIV-1) | Cell viability (human PBMC) | Total number of cells versus control sample without GML (human PBMC)
CCCCCCCCCCCC(=O)OCC(O)CO (stereo not shown) [GML, glycerol monolaurate] | completely prevented hemolysis | completely inhibited | None Detected | None Detected | None Detected | None Detected | None Detected | None Detected | rare and no cells expressing p24 | preserved | significantly less
Ovalbumin [reference compound] | – | – | 36 ± 1.5 pg/mL | 12 ± 1.8 pg/mL | – | – | – | – | – | – | –
